Data taken from PMC9653795, “Structure-Guide Design and Optimization of Potential Druglikeness Inhibitors for TGFβRI with the Pyrrolopyrimidine Scaffold” (Pharmaceuticals, 2022).

Target: T1, TGFβRI (Homo sapiens, UniProt P36897)
T1 construct: gene TGFBR1
T1 sequence (P36897 34-503): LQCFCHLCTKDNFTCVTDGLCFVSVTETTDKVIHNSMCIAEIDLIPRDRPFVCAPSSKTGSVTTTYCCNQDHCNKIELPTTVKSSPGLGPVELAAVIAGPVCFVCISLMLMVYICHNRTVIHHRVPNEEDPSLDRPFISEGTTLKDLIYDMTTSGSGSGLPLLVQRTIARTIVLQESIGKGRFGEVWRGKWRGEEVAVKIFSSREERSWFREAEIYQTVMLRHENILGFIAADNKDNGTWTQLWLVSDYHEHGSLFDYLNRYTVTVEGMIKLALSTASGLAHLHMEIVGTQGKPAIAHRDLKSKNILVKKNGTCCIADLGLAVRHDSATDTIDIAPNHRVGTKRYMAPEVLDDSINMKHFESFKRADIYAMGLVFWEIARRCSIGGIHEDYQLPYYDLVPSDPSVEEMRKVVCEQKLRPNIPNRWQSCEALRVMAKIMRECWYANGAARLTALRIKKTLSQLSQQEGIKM
Experiment: ADP-Glo kinase assay
Type: biochemical

IC50: 10.8 µM
Compound: CC(C)(O)CNc1nc(Nc2ccncc2F)nc(-c2cccc(C(F)(F)F)n2)n1 [W8, 1-((4-((3-Fluoropyridin-4-yl)Amino)-6-(6-(Trifluoromethyl)Pyridin-2-yl)-1,3,5-Triazin-2-yl)Amino)-2-Methylpropan-2-ol]
